Experimental findings from patent US6482799B1, “Self-preserving multipurpose ophthalmic solutions incorporating a polypeptide antimicrobial” (The Regents of the University of California, priority 1999, dated 2002) are described below.

A short description of series [1]: Toxicity study, intravaginal administration. On the procedure:
The objective of this study was to determine if the treatment regimen proposed for the efficacy study of the defensin formulations caused target organ toxicity. This study is not intended to support application for research or marketing permits for products regulated by governmental agencies. The purpose of this study is to provide range-finding data is therefore, not within the scope of Good Laboratory Practice Guidelines.
Mice were treated by intravaginal administration twice daily at ˜12 hour intervals administered on Days 1 through 4. Mice were treated intraperitoneally three times on Day 1 at ˜4 hour intervals, and twice daily at ˜12 hour intervals administered on days 2 through 4.
Dosing volumes were 0.1 mL/mouse (intravaginal), 0.1 mL/mouse (intraperitoneal), and 20 μL/rabbit. The study lasted 5 days, with day 1 the first day of dose administration.
The dose formulations were supplied in pyrogen-free saline.

For series [2] the following is noted: 4.97 mg dry powder. The method, then: 4.97 mg of L-IND #036752, stored at 4° C. in a desiccation) was weighed into a polypropylene microfuge and dissolved in 0.01% acetic acid.
Series [3] has as its system P. aeruginosa (ATCC 27853). The experiment in a line: Protocol 3 time-dependent antimicrobial activity at one dose level. The format is cell-based, Pseudomonas aeruginosa.
The subject of series [4] is Staphylococcus aureus (ATCC 6538). The experiment in a line: Short-term (14 day) stability in commercial plastic container (RENU) by S. aureus bioassay. The format is cell-based. The following applies: for stability of antimicrobial activity: room temperature, plastic container. From the text:
The objective of this study was to determine if there is significant and rapid binding of L-IND to a typical plastic bottle such as the type to be used to store, ship and use the lens-care solution. The 2-week study reported here was a range-finding task to determine if there was substantial binding and incompatibility, and its results helped plan a more extensive stability study over a period of 8 months.
The two commercial containers were used that previously contained the commercial product RENU®, a multi-purpose solution for all soft contact lenses not requiring enzymatic cleaning, and manufactured by Bausch & Lomb. These containers hold a volume of 89 ml and came with a dispenser that precludes the removal of the cap, which aids in keeping the solution sterile. The lot number of the RENU® lens-care solutions used was GE7089, having an expiration date of May 1999.
The containers were prepared for the L-IND stability study by discarding the RENU® lens care solution, and by rinsing, 3 times with either sterile 10 mM sodium phosphate buffer (SP), pH 7.4 or 10 mM SP supplemented with 0.85 % (w/v) sodium chloride (SP+NaCl).
The test article, L-IND peptide solution, was prepared fresh from dry L-IND powder (Lot #036752). Two solutions were prepared for evaluation, to a final concentration of 50 μg/ml in 50 ml of 10 mM SP and 10 mM SP+NaCl. For this purpose a stock solution was prepared by weighing out 5 mg of L-IND and dissolving it in 10 ml of 0.01% acetic acid in a pyrogen free sterile Teflon container. A 10-fold dilution of this stock was then made by transferring 5 ml of the stock solution to each of the containers to which was then added 45 ml of either 10 mM SP or 10 mM SP+NaCl. After mixing by slowly shaking, the solutions were maintained at room temperature for the duration of the study.
It should be noted that the 5 ml of the L-IND stock solution was added to the empty containers. This was followed by addition of 45 ml of the respective buffer systems. The addition of peptide concentrate to the empty containers would enhance binding of the peptide to the plastic. Had excessive binding resulted, a less stringent procedure of adding the peptide concentrate to bottles prefilled with buffer would have been adopted in subsequent experiments.
The stability of L-IND in each container was determined at times 0 h, 24 h, 48 h, 72 h, 7 d, 10 d and 14 d. At each sampling point, the contents of each of the two containers was shaken gently 3 times in a back and forth rocking motion. Three aliquots of about 1.5 ml of the solutions containing L-IND were removed. One aliquot was used immediately for determining the stability of L-IND by exposure to Staphylococcus aureus (see below). The other aliquots were stored in the freezer (−20° C.). One of these aliquots was kept until the end of the monitoring period, which was 14 days. At that time all the frozen samples were thawed and tested for stability of L-IND by bioassay.
Staphylococcus aureus (ATCC 6538) obtained directly from the American Type Culture Collection was the test organism. The bacterium was grown overnight at 37° C. in 5 ml of Mueller-Hinton (MH) broth on a shaking platform (180 rpm). The overnight culture was washed 2 times in sterile saline by centrifugation at 7,000 RPM. One half of the cells were then resuspended in 2.5 ml of sterile 10 mM SP, while the other half was resuspended in 2.5 ml of 10 mM SP+NaCl. Each washed culture was then diluted to give an estimated 10^7 colony-forming-units (CFU) per […].
S. aureus was exposed at room temperature to each of the samples, removed at the different time points, for 0, 15 and 60 minutes, and for 4 hours. For this purpose 0.25 ml of each L-IND solution was dispensed into wells of a 96-well polypropylene titer plate. A volume of 20 μl of the 10× washed bacterial suspension was then added to each well. The estimated cell density thus obtained per well was about 10^6 CFU/ml. […]

For the compound `CC[C@H](C)[C@H](N)C(=O)N[C@@H](CC(C)C)C(=O)N1CCC[C@H]1C(=O)N[C@@H](Cc1c[nH]c2ccccc12)C(=O)N[C@@H](CCCCN)C(=O)N[C@@H](Cc1c[nH]c2ccccc12)C(=O)N1CCC[C@H]1C(=O)N[C@@H](Cc1c[nH]c2ccccc12)C(=O)N[C@@H](Cc1c[nH]c2ccccc12)C(=O)N1CCC[C@H]1C(=O)N[C@@H](Cc1c[nH]c2ccccc12)C(=O)N[C@@H](CCCNC(=N)N)C(=O)N[C@@H](CCCNC(=N)N)C(N)=O` [L-indolicidin, H2N-ILPWKWPWWPWRR-CONH2], the “Tissues from the reproductive tract (histology)” value in series [1] (0.1 mL/mouse at 10, 100 or 1000 μg/mL, BPN-A-amide at 30, 300 or 300 μ/mL) is “within normal limits”. For the same compound, the “deaths or clinical signs of toxicity” value in series [1] (10, 100 or 1000 μg/mL, BPN-A-amide 30, 300 or 3000 μg/mL) is given as “No deaths or biologically significant clinical signs of toxicity”. Also, in series [2], the “Solubility in 0.01% acetic acid” value was “went into solution immediately”. In series [3] (50 μg/ml, 10 mM sodium phosphate buffer, as early as after 1 minute exposure, initial 2.0×10^6 CFU/ml), the log cell reduction was around 6 log. Further, the survival was 2.4 × 10^6 CFU/ml in series [3] (50 μg/ml, 10 mM sodium phosphate buffer, exposure time 0 hr); 1.6 × 10^6 CFU/ml in series [3] (50 μg/ml, 10 mM sodium phosphate buffer, exposure time 1 hr); 1.1 × 10^5 CFU/ml in series [3] (50 μg/ml, 10 mM sodium phosphate buffer, exposure time 2 hr); 0 CFU/ml in series [3] (50 μg/ml, 10 mM sodium phosphate buffer, exposure time 4 hr); 0 CFU/ml in series [3] (50 μg/ml, 10 mM sodium phosphate buffer, exposure time 6 hr); 0 CFU/ml in series [3] (50 μg/ml, 10 mM sodium phosphate buffer, exposure time 12 hr). Moreover, the survival is listed as 100% in series [3] (50 μg/ml, 10 mM sodium phosphate buffer, up to 15 minutes) and “no detectable survival” in series [3] (50 μ/ml, 10 mM sodium phosphate buffer, after 4 hours exposure). Also, in series [3] (50 μg/ml, 100 mM sodium phosphate buffer, exposures of between 15 and 60 min), the killing result is listed as “virtually complete killing”. The “stability of antimicrobial activity” value is “stable” in series [4] (50 μg/ml in 10 mM SP+NaCl (0.85%), 14 days) and “stable” in series [4] (50 μg/ml in 10 mM SP, 14 days). In addition, in series [4] (50 μg/ml, 14 days), the “adsorption to the plastic container” value is “no obvious or dramatic adsorption”. In addition, the log kill entry was “about 1.5 log” in series [4] (50 μg/ml, frozen samples, 10 mM SP+NaCl, 4 hours exposure); 6 log in series [4] (50 μg/ml, frozen, 10 mM SP, 60 minute exposure); around 1 log in series [4] (50 μg/ml, unfrozen, 10 mM SP+NaCl (0.85%), 4 hours exposure); 4 log in series [4] (50 μg/ml, unfrozen, 10 mM SP, 4 hours exposure).
